In patent US10597366B2, “Aryl ethers and uses thereof” (Peloton Therapeutics, Inc., priority 2013, dated 2020) one finds EC50 data, which are given here for 36 compounds.

As a reminder, the EC50 is the concentration at which the effect is half-maximal.

In the first test the test system is 786-O-Hif-Luc cells (luciferase gene driven by multiple HIF responsive elements). As to the kind of experiment: Luciferase Assay. Type of test: cell-based. The settings on record: 24 h, 786-O-Hif-Luc cells, about 24 hours; read-out: Mean Luciferease EC50. Here is the method: A pool of infected cells were then selected against 2 μg/mL of puromycin (P8833, Sigma) for 10 days followed by limited dilution to select single clones.
Each concentration was tested in triplicate. After about 24 hours, luciferase activity was determined using ONE-Glo Luciferase Assay Reagent (E6110, Promega) following the manufacturer's recommended procedure. EC50 were calculated by using Dotmatics software.
Consider `N#Cc1cc(F)cc(Oc2ccc(S(=O)(=O)CF)c3c2CC[C@H]3O)c1` [Compound 62, (R)-3-Fluoro-5-((7-((fluoromethyl)sulfonyl)-1-hydroxy-2,3-dihydro-1H-inden-4-yl)oxy)benzonitrile], for which the EC50 was 180 nM.

As to `CS(=O)(=O)c1ccc(Oc2cc(F)cc(C#N)c2)c2c1[C@H](O)C(F)(F)[C@H]2F` [Compound 293, 3-fluoro-5-[(1S,3S)-2,2,3-trifluoro-1-hydroxy-7-methylsulfonyl-indan-4-yl]oxy-benzonitrile], the EC50 is 780 nM.

For `O=S(=O)(c1ccc(Oc2cncc(F)c2)c2c1[C@H](O)CC2)C(F)F` [Compound 5, (R)-7-((difluoromethyl)sulfonyl)-4-((5-fluoropyridin-3-yl)oxy)-2,3-dihydro-1H-inden-1-ol], the EC50 worked out at 420 nM.

In the case of `O=S(=O)(c1ccc(Oc2cccc3[nH]ncc23)c2c1C(O)C(F)(F)C2)C(F)(F)F` (stereo not drawn) [Compound 243], the EC50 stood at 920 nM.

`N#Cc1c(S(=O)(=O)C(F)(F)F)ccc(Oc2cc(F)cc(Cl)c2)c1Cl` [Compound 111, 2-Chloro-3-(3-chloro-5-fluorophenoxy)-6-((trifluoromethyl)sulfonyl)benzonitrile]: the EC50 was 1380 nM.

With `NCc1c(S(=O)(=O)C(F)F)ccc(Oc2cc(F)cc(Cl)c2)c1Br` [Compound 85, (2-Bromo-3-(3-chloro-5-fluorophenoxy)-6-((difluoromethyl)sulfonyl)phenyl)methanamine], the EC50 worked out at 11800 nM.

On to `Cc1nnc(/C=C/c2c(S(=O)(=O)C(F)(F)F)ccc(Oc3cc(F)cc(C#N)c3)c2C)o1` [Compound 151, 3-Fluoro-5-[2-methyl-3-[(E)-2-(5-methyl-1,3,4-oxadiazol-2-yl)vinyl]-4-(trifluoromethylsulfonyl)phenoxy]benzonitrile], for which the EC50 amounted to 8900 nM.

For the compound `CS(=O)(=O)c1ccc(Oc2cccc(C#N)c2)c2c1[C@H](O)C(F)(F)C2` [Compound 162, 3-[(1S)-2,2-Difluoro-1-hydroxy-7-methylsulfonyl-indan-4-yl]oxybenzonitrile], the EC50 was found to be 63 nM.

Turning to `O=S(=O)(CF)c1ccc(Oc2cc(F)cc(Cl)c2)c2c1[C@H](O)C(F)(F)C2` [Compound 65, (S)-4-(3-Chloro-5-fluorophenoxy)-2,2-difluoro-7-((fluoromethyl)sulfonyl)-2,3-dihydro-1H-inden-1-ol], the EC50 turned out to be 6 nM.

For `Cc1cc(S(=O)(=O)C(F)F)ccc1Oc1cc(F)cc(Cl)c1` [Compound 135, 1-(3-Chloro-5-fluoro-phenoxy)-4-(difluoromethylsulfonyl)-2-methyl-benzene], the EC50 was 5400 nM.

On to `O=S(=O)(c1ccc(Oc2c(F)ccc3[nH]ncc23)c2c1[C@H](O)C(F)(F)C2)C(F)(F)F` [Compound 264, (S)-2,2-Difluoro-4-((5-fluoro-1H-indazol-4-yl)oxy)-7-((trifluoromethyl)sulfonyl)-2,3-dihydro-1H-inden-1-ol], for which the EC50 is 2730 nM.

For `O=S(=O)(c1ccc(Oc2cc(F)cc(Cl)c2)c(Cl)c1CCl)C(F)F` [Compound 46, 2-Chloro-1-(3-chloro-5-fluorophenoxy)-3-(chloromethyl)-4-((difluoromethyl)sulfonyl)benzene], the EC50 was 8100 nM.

As to `N#Cc1cc(F)cc(Oc2ccc(S(=O)(=O)C(F)F)c3c2CC(F)(F)C3O)c1` (stereo not drawn) [Compound 11, 3-[7-(difluoromethylsulfonyl)-2,2-difluoro-1-hydroxy-indan-4-yl]oxy-5-fluoro-benzonitrile], the EC50 came to 16 nM.

Regarding `O=Cc1c(S(=O)(=O)C(F)(F)F)ccc(Oc2cc(F)cc(Cl)c2)c1Br` [Compound 101, 2-Bromo-3-(3-chloro-5-fluorophenoxy)-6-((trifluoromethyl)sulfonyl)benzaldehyde], the EC50 was 320 nM.

Consider `CS(=N)(=O)c1ccc(Oc2cc(F)cc(F)c2)c2c1[C@H](O)C(F)(F)C2` (stereo partly drawn) [Compound 192, ((S)-7-(3,5-Difluorophenoxy)-2,2-difluoro-3-hydroxy-2,3-dihydro-1H-inden-4-yl)(imino)(methyl)-λ^6-sulfanone], for which the EC50 amounted to 280 nM.

On to `O=S(=O)(c1ccc(Oc2cc(Cl)cc(Cl)c2)c(Br)c1)C(F)(F)F` [Compound 172, 2-Bromo-1-(3,5-dichlorophenoxy)-4-((trifluoromethyl)sulfonyl)benzene], for which the EC50 came out at 3410 nM.

As to `O=S(=O)(c1ccc(Oc2ccc(F)c(Br)c2)c2c1[C@H](O)C(F)(F)C2)C(F)F` [Compound 194, (S)-4-(3-Bromo-4-fluorophenoxy)-7-((difluoromethyl)sulfonyl)-2,2-difluoro-2,3-dihydro-1H-inden-1-ol], the EC50 stood at 330 nM.

With `O=S(=O)(c1ccc(Oc2cc(F)c(F)c3[nH]ncc23)c2c1C(O)C(F)(F)C2)C(F)(F)F` (stereo not drawn) [Compound 261, 4-((6,7-Difluoro-1H-indazol-4-yl)oxy)-2,2-difluoro-7-((trifluoromethyl)sulfonyl)-2,3-dihydro-1H-inden-1-ol], the EC50 was 1650 nM.

For `O=S(=O)(c1ccc(Oc2cc(F)cc(F)c2)c2c1C=CC2)C(F)F` [Compound 21, 4-((Difluoromethyl)sulfonyl)-7-(3,5-difluorophenoxy)-1H-indene], the EC50 was found to be 1540 nM.

Take `O=S(=O)(c1ccc(Oc2ccc(F)c3[nH]ncc23)c2c1[C@H](O)C(F)(F)C2)C(F)(F)F` [Compound 266, (S)-2,2-difluoro-4-((7-fluoro-1H-indazol-4-yl)oxy)-7-((trifluoromethyl)sulfonyl)-2,3-dihydro-1H-inden-1-ol]: the EC50 was 30 nM.

As to `O=S(=O)(c1ccc(Oc2ccc(F)c(Cl)c2)c2c1[C@H](O)C(F)(F)C2)C(F)F` [Compound 26, (S)-4-(3-Chloro-4-fluorophenoxy)-7-((difluoromethyl)sulfonyl)-2,2-difluoro-2,3-dihydro-1H-inden-1-ol], the EC50 stood at 68 nM.

For `CCOC(=O)/C=C/c1c(S(=O)(=O)C(F)(F)F)ccc(Oc2cc(F)cc(C#N)c2)c1C` [Compound 148, Ethyl (E)-3-(3-(3-cyano-5-fluorophenoxy)-2-methyl-6-((trifluoromethyl)sulfonyl)phenyl)acrylate], the EC50 was 5600 nM.

`CS(=O)(=O)c1ccc(Oc2cncc(Cl)c2)c2c1[C@H](O)C(F)(F)C2` [Compound 115, (S)-4-((5-Chloropyridin-3-yl)oxy)-2,2-difluoro-7-(methylsulfonyl)-2,3-dihydro-1H-inden-1-ol]: the EC50 stood at 300 nM.

Turning to `Cc1cc(Oc2cc(F)cc(C#N)c2)c2c(c1S(C)(=O)=O)C(O)C(F)(F)C2` (stereo not drawn) [Compound 213, 3-((2,2-Difluoro-1-hydroxy-6-methyl-7-(methylsulfonyl)-2,3-dihydro-1H-inden-4-yl)oxy)-5-fluorobenzonitrile], the EC50 was found to be 770 nM.

For `O=S(=O)(c1ccc(Oc2cc(F)cc(Cl)c2)c2c1[C@H](O)CC2)C(F)(F)F` [Compound 56, (R)-4-(3-Chloro-5-fluorophenoxy)-7-((trifluoromethyl)sulfonyl)-2,3-dihydro-1H-inden-1-ol], the half-maximal effective concentration (EC50) amounted to 68 nM.

As for `O=S(=O)(c1ccc(Oc2cc(Cl)c[n+]([O-])c2)c2c1[C@H](O)C(F)(F)C2)C(F)(F)F` [Compound 260, (S)-3-Chloro-5-((2,2-difluoro-1-hydroxy-7-((trifluoromethyl)sulfonyl)-2,3-dihydro-1H-inden-4-yl)oxy)pyridine 1-oxide], the EC50 was determined as 170 nM.

For the compound `O=S(=O)(c1ccc(Oc2ccc(F)c(F)c2)c2c1C(O)CC2)C(F)(F)F` (stereo not drawn) [Compound 214, 4-(3,4-Difluorophenoxy)-7-((trifluoromethyl)sulfonyl)-2,3-dihydro-1H-inden-1-ol], the half-maximal effective concentration (EC50) was found to be 1270 nM.

With `Cc1c(S(C)(=O)=O)ccc(Oc2cc(F)cc(F)c2)c1C#N` [Compound 52, 6-(3,5-Difluorophenoxy)-2-methyl-3-(methylsulfonyl)benzonitrile], the EC50 is 1000 nM.

Take `N#Cc1cc(F)cc(Oc2ccc(S(=O)(=O)C(F)(F)F)cc2C#N)c1` [Compound 120, 2-(3-Cyano-5-fluorophenoxy)-5-((trifluoromethyl)sulfonyl)benzonitrile]: the EC50 worked out at 7400 nM.

Take `O=S(=O)(c1ccc(Oc2ccc(F)c(Cl)c2)c2c1[C@H](O)C(F)(F)C2)C(F)(F)F` [Compound 221, (S)-4-(3-Chloro-4-fluorophenoxy)-2,2-difluoro-7-((trifluoromethyl)sulfonyl)-2,3-dihydro-1H-inden-1-ol]: the EC50 amounted to 26 nM.

Still in this test, the particulars now being: 24 h, read-out: Mean Luciferease EC50.
Take `[2H][C@]1(O)c2c(S(C)(=O)=O)ccc(Oc3cc(F)cc(C#N)c3)c2CC1(F)F` [Compound 247, (S)-3-((2,2-Difluoro-1-hydroxy-7-(methylsulfonyl)-2,3-dihydro-1H-inden-4-yl-1-d)oxy)-5-fluorobenzonitrile]: the EC50 turned out to be 24 nM.

Take `CS(=O)(=O)c1ccc(Oc2cc(F)cc(C#N)c2)c2c1[C@H](O)[C@@H](F)C2` [Compound 271, 3-fluoro-5-(((1S,2S)-2-fluoro-1-hydroxy-7-(methylsulfonyl)-2,3-dihydro-1H-inden-4-yl)oxy)benzonitrile]: the EC50 amounted to 470 nM.

Take `CS(=O)(=O)c1ccc(Oc2cc(F)cc(C#N)c2)c2c1[C@@H](O)C(F)(F)C2` [Compound 226, (R)-3-((2,2-Difluoro-1-hydroxy-7-(methylsulfonyl)-2,3-dihydro-1H-inden-4-yl)oxy)-5-fluorobenzonitrile]: the EC50 worked out at 3500 nM.

Consider `N#Cc1cc(F)cc(Oc2ccc(S(N)(=O)=O)c3c2[C@@H](F)C(F)(F)[C@H]3O)c1` [Compound 338, (1R,3S)-7-(3-cyano-5-fluoro-phenoxy)-1,2,2-trifluoro-3-hydroxy-indane-4-sulfonamide], for which the EC50 was found to be 6.1 nM.

As to `N#Cc1cccc(Oc2ccc(S(=O)(=O)C(F)F)c3c2CC[C@H]3O)c1` [Compound 156, 3-[(1R)-7-(Difluoromethylsulfonyl)-1-hydroxy-indan-4-yl]oxybenzonitrile], the EC50 is 350 nM.

With `CS(=O)(=O)c1ccc(Oc2cc(F)cc(C#N)c2)c2c1C(O)C(F)C2` (stereo not drawn) [Compound 232, 3-Fluoro-5-((2-fluoro-1-hydroxy-7-(methylsulfonyl)-2,3-dihydro-1H-inden-4-yl)oxy)benzonitrile], the EC50 was 35 nM.
